According to patent publication US6667335B2, “Imidazole derivatives” (Hoffmann-La Roche Inc., priority 2001, dated 2003):

How the values were obtained:
[1] = molecular target: T1, NMDA-receptor subtype 2B (Rattus norvegicus, UniProt P35439+Q00960); assay: 3H-Ro 25-6981 binding (displacement) on rat brain membranes; settings: displacement of 5 nM 3H-Ro 25-6981, rat whole brain membranes (minus cerebellum and medulla oblongata), 2 hours at 4° C.
T1 construct: Membranes were prepared by homogenization of the whole brain minus cerebellum and medulla oblongata; from tissue; host or cells: rat whole brain minus cerebellum and medulla oblongata, membrane preparation
T1 sequence (Q00960 27-1482, other chains not shown): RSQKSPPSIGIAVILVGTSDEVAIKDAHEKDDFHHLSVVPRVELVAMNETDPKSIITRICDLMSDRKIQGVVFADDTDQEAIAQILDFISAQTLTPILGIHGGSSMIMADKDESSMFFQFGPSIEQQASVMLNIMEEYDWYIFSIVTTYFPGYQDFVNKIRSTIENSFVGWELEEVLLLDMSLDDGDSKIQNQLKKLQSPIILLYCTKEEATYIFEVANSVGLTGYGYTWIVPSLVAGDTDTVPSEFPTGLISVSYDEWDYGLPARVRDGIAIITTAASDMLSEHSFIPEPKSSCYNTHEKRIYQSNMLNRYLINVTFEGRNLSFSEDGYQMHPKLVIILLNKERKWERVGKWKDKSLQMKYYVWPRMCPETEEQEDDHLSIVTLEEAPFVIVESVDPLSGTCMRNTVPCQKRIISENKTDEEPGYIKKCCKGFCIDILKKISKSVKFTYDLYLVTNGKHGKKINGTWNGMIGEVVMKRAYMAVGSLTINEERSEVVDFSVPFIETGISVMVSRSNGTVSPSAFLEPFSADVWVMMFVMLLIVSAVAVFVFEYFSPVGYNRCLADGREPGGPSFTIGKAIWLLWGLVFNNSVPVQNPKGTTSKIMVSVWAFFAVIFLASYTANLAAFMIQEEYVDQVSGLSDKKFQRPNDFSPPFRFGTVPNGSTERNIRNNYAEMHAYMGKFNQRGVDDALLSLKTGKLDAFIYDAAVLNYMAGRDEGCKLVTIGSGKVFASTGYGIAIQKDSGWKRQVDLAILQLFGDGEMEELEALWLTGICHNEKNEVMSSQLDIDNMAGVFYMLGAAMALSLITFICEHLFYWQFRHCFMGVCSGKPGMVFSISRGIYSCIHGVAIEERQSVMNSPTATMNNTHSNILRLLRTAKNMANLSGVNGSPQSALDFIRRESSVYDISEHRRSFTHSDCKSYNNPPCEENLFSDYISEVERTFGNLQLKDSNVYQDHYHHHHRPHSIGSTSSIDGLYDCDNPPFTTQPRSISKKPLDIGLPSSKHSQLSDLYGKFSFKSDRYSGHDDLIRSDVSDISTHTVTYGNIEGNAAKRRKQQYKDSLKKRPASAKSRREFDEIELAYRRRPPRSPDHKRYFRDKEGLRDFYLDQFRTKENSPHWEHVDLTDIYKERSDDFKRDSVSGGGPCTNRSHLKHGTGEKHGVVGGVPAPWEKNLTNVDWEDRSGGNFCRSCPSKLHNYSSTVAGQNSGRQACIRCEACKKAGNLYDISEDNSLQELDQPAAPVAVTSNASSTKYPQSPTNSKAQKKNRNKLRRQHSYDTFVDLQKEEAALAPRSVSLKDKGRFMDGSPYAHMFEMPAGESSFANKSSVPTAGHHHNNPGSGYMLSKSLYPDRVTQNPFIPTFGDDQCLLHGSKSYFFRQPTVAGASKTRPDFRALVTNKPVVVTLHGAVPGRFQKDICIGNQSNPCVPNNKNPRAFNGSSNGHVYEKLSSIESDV
Method: ^3H[R-(R*,S*)]-(α-(4-Hydroxy-phenyl)-β-methyl-4-(phenyl-methyl)-1-piperidine propanol)binding
Male Füllinsdorf albino rats weighing between 150-200 g were used. Membranes were prepared by homogenization of the whole brain minus cerebellum and medulla oblongata with a Polytron (10.000 rpm, 30 seconds), in 25 volumes of a cold Tris-HCl 50 mM, EDTA 10 mM, pH 7.1 buffer. The homogenate was centrifuged at 48,000 g for 10 minutes at 4° C. The pellet was resuspended using the Polytron in the same volume of buffer and the homogenate was incubated at 37° C. for 10 minutes. After centrifugation the pellet was homogenized in the same buffer and frozen at −80° C. for at least 16 hours but not more than 10 days. For the binding assay the homogenate was thawed at 37° C., centrifuged and the pellet was washed three times as above in a Tris-HCl 5 mM, pH 7.4 cold buffer. The final pellet was resuspended in the same buffer and used at a final concentration of […]. ^3H-Ro 25-6981 binding experiments were performed using a Tris-HCl 50 mM, pH 7.4 buffer. For displacement experiments 5 nM of ^3H-Ro 25-6981 were used and non specific binding was measured using 10 mM of tetrahydroisoquinoline and usually it accounts for 10% of the total. The incubation time was 2 hours at 4° C. and the assay was stopped by filtration on Whatmann GF/B glass fiber filters (Unifilter-96, Packard, Zürich, Switzerland). The filters were washed 5 times with cold buffer. The radioactivity on the filter was counted on a Packard Top-count microplate scintillation counter after addition of […] of microscint 40 (Canberra Packard S.A., Zuirich, Switzerland).
The effects of compounds were measured using a minimum of 8 concentrations and repeated at least once.

IC50 [1] | melting point | SMILES
0.016 µM | 210 to 212 °C | Cc1cc(-n2cnc(Cn3ccnc3C)c2)ccc1F.Cl.Cl [Example 24, 1H-Imidazole, 1-[[1-(4-Fluoro-3-methylphenyl)-1H-imidazol-4-yl]methyl]-2-methyl-, Hydrochloride (1:2)]
0.043 µM | > 235 °C (dec.) | Cc1ccc(-n2cnc(Cn3ccnc3C)c2)cc1C(F)(F)F.Cl.Cl [Example 39, 1H-Imidazole, 2-Methyl-1-[[1-[4-methyl-3-(trifluoromethyl)phenyl]-1H-imidazol-4-yl]methyl]-, Hydrochloride (1:2)]
0.061 µM | 243 to 244 °C | Cc1nccn1Cc1cn(-c2ccc(Cl)cc2)cn1.Cl.Cl [Example 48, 1H-Imidazole, 1-[[1-(4-Chlorophenyl)-1H-imidazol-4-yl]methyl]-2-methyl-, Hydrochloride (1:2)]
0.078 µM | > 250 °C | Cc1nccn1Cc1cn(-c2ccc3c(c2)OCO3)cn1.Cl.Cl [Example 52, 1H-Imidazole, 1-[[1-(1,3-Benzodioxol-5-yl)-1H-imidazol-4-yl]methyl]-2-methyl-, Hydrochloride (1:2)]
0.093 µM | 220 to 221 °C | CCc1nccn1Cc1cn(-c2ccc(OC)c(Cl)c2)cn1.Cl.Cl [Example 58, 1H-Imidazole, 1-[[1-(3-Chloro-4-methoxyphenyl)-1H-imidazol-4-yl]methyl]-2-ethyl-, Hydrochloride (1:2)]
0.017 µM | 242 to 243 °C | Cc1ccc(-n2cnc(Cn3ccnc3C)c2)cc1Cl.Cl.Cl [Example 87, 1H-Imidazole, 1-[[1-(3-Chloro-4-methylphenyl)-1H-imidazol-4-yl]methyl]-2-methyl-, Hydrochloride (1:2)]
0.048 µM | 218 to 220 °C | Cc1ccc(-n2cnc(Cn3ccnc3)c2)cc1Cl.Cl.Cl [Example 89, 1H-Imidazole, 1-(3-Chloro-4-methylphenyl)-4-(1H-imidazol-1-yl-methyl)-, Hydrochloride (1:2)]
0.02 µM | 224 to 225 °C | Cc1nccn1Cc1cn(-c2ccc(F)c(Cl)c2)cn1.Cl.Cl [Example 93, 1H-Imidazole, 1-[[1-(3-Chloro-4-fluorophenyl)-1H-imidazol-4-yl]methyl]-2-methyl-, Hydrochloride (1:2)]
0.021 µM | 248 to 250 °C | CCc1nccn1Cc1cn(-c2ccc(F)c(Cl)c2)cn1.Cl.Cl [Example 94, 1H-Imidazole, 1-[[1-(3-Chloro-4-fluorophenyl)-1H-imidazol-4-yl]methyl]-2-ethyl-, Hydrochloride (1:2)]
0.043 µM | > 240 °C (dec.) | Cc1nccn1Cc1ncn(-c2ccc(Cl)c(Cl)c2)c1C.Cl.Cl [Example 103, 1H-Imidazole, 1-(3,4-Dichlorophenyl)-5-methyl-4-[(2-methyl-1H-imidazol-1-yl)methyl]-, Hydrochloride (1:2)]
0.085 µM | 202 to 203 °C | OCc1nccn1Cc1cn(-c2ccc(Cl)c(Cl)c2)cn1 [Example 109, {1-[1-(3,4-Dichloro-phenyl)-1H-imidazol-4-yl-methyl]-1H-imidazol-2-yl}-methanol]
0.011 µM | > 250 °C | CCNc1nccn1Cc1cn(-c2ccc(Cl)c(Cl)c2)cn1.Cl.Cl [Example 111, {1-[1-(3,4-Dichloro-phenyl)-1H-imidazol-4-yl-methyl]-1H-imidazol-2-yl}-ethyl-amine Hydrochloride (1:2)]
0.038 µM | 169 to 170 °C | Cc1nccn1Cc1cn(-c2cccc(SC(F)(F)F)c2)cn1.Cl.Cl [Example 144, 1H-Imidazole, 2-Methyl-1-[[1-[3-(trifluoromethylthio)phenyl]-1H-imidazol-4-yl]methyl]-, Hydrochloride (1:2)]
0.008 µM | 130 to 134 °C (dec.) | CCc1nccn1Cc1cn(-c2cccc(C(C)(F)F)c2)cn1.Cl.Cl [Example 146, 1H-Imidazole, 1-[[1-[3-(1,1-Difluoroethyl)phenyl]-1H-imidazol-4-yl]methyl]-2-ethyl-, Hydrochloride (1:2)]
0.0092 µM | > 200 °C (dec.) | Cc1nccn1Cc1cn(-c2cccc(C(C)(F)F)c2)cn1.Cl.Cl [Example 147, 1H-Imidazole, 1-[[1-[3-(1,1-Difluoroethyl)phenyl]-1H-imidazol-4-yl]methyl]-2-methyl-, Hydrochloride (1:2)]
0.0082 µM | > 200 °C (dec.) | Cc1nccn1Cc1cn(-c2ccc(F)c(C(C)(F)F)c2)cn1.Cl.Cl [Example 149, 1H-Imidazole, 1-[[1-[3-(1,1-Difluoroethyl)-4-fluorophenyl]-1H-imidazol-4-yl]methyl]-2-methyl-, Hydrochloride (1:2)]
0.0135 µM | > 200 °C (dec.) | CC(F)(F)c1cc(-n2cnc(Cn3ccnc3)c2)ccc1F.Cl.Cl [Example 150, 1-[3-(1,1-Difluoro-ethyl)-4-fluoro-phenyl]-4-imidazol-1-ylmethyl-1H-imidazole Hydrochloride (1:2)]
0.01 µM | > 200 °C (dec.) | Cc1nccn1Cc1cn(-c2cccc(C(C)C)c2)cn1.Cl.Cl [Example 152, 1H-Imidazole, 1-[[1-(3-Isopropylphenyl)-1H-imidazol-4-yl]methyl]-2-methyl-, Hydrochloride (1:2)]
0.048 µM | 200 to 206 °C | CC(C)c1cccc(-n2cnc(Cn3ccnc3)c2)c1.Cl.Cl [Example 154, 4-Imidazol-1-ylmethyl-1-(3-isopropyl-phenyl)-1H-imidazole Hydrochloride (1:2)]
0.014 µM | 238 to 239 °C | CCc1nccn1Cc1cn(-c2ccc(F)c(Br)c2)cn1.Cl.Cl [Example 156, 1H-Imidazole, 1-[[1-(3-Bromo-4-fluorophenyl)-1H-imidazol-4-yl]methyl]-2-ethyl-, Hydrochloride (1:2)]
0.014 µM | 232 to 233 °C | Cc1nccn1Cc1cn(-c2ccc(F)c(Br)c2)cn1.Cl.Cl [Example 157, 1H-Imidazole, 1-[[1-(3-Bromo-4-fluorophenyl)-1H-imidazol-4-yl]methyl]-2-methyl-, Hydrochloride (1:2)]
0.041 µM | 229 to 230 °C | Cl.Cl.Fc1ccc(-n2cnc(Cn3ccnc3)c2)cc1Br [Example 158, 1-(3-Bromo-4-fluoro-phenyl)-4-imidazol-1-ylmethyl-1H-imidazole Hydrochloride (1:2)]
0.014 µM | > 200 °C (dec.) | CCc1cccc(-n2cnc(Cn3ccnc3C)c2)c1.Cl.Cl [Example 159, 1H-Imidazole, 1-[[1-(3-Ethylphenyl)-1H-imidazol-4-yl]methyl]-2-methyl-, Hydrochloride (1:2)]
0.016 µM | > 200 °C (dec.) | CCc1cccc(-n2cnc(Cn3ccnc3CC)c2)c1.Cl.Cl [Example 160, 1H-Imidazole, 2-Ethyl-1-[[1-(3-ethylphenyl)-1H-imidazol-4-yl]methyl]-, Hydrochloride (1:2)]
0.05 µM | > 190 °C (dec.) | CCc1cccc(-n2cnc(Cn3ccnc3)c2)c1.Cl.Cl [Example 161, 1-(3-Ethyl-phenyl)-4-imidazol-1-ylmethyl-1H-imidazole Hydrochloride (1:2)]
0.016 µM | 174 to 175 °C | Cc1nccn1Cc1cn(-c2cccc(C3CC3)c2)cn1.Cl.Cl [Example 162, 1H-Imidazole, 1-[[1-(3-Cyclopropylphenyl)-1H-imidazol-4-yl]methyl]-2-methyl-, Hydrochloride (1:2)]
0.017 µM | 223 to 225 °C (dec.) | Cc1nccn1Cc1cn(-c2ccc(F)c(C(F)F)c2)cn1.Cl.Cl [Example 163, 1H-Imidazole, 1-[[1-(3-Difluoromethyl-4-fluorophenyl)-1H-imidazol-4-yl]methyl]-2-methyl-, Hydrochloride (1:2)]
0.046 µM | 239 to 241 °C | Cl.Cl.Fc1ccc(-n2cnc(Cn3ccnc3)c2)cc1C(F)F [Example 165, 1-(3-Difluoromethyl-4-fluoro-phenyl)-4-imidazol-1-ylmethyl-1H-imidazole Hydrochloride (1:2)]
0.02 µM | > 200 °C (dec.) | CCc1nccn1Cc1cn(-c2cccc(SC)c2)cn1.Cl.Cl [Example 166, 1H-Imidazole, 2-Ethyl-1-[[1-[3-(methylthio)phenyl]-1H-imidazol-4-yl]methyl]-, Hydrochloride (1:2)]
0.039 µM | 221 to 223 °C | Cc1nccn1Cc1cn(-c2cccc(OC(F)(F)F)c2)cn1.Cl.Cl [Example 170, 1H-Imidazole, 2-Methyl-1-[[1-[3-(trifluoromethoxy)phenyl]-1H-imidazol-4-yl]methyl]-, Hydrochloride (1:2)]
